Some results are limits rather than exact numbers.

In the case of `CC(=O)OC1CCC2(C)C(CCC3C4CC=C(C=Cc5ccccc5)C4(C)CCC32)C1` (configuration not stated), the melting point (in general, the temperature, or range, at which the solid turns liquid) was found to be 119 °C.
Under `CC#CCCCCC` stands -61.6 °C.
The molecule `O=C1C(=Cc2ccccc2)SC(=S)N1CN1CCCCC1` registered a melting point of 114 °C.
The result for `Cn1ccc2c(C=O)cccc21` reads 27 to 29 °C; that for `N#CSCC(=O)c1ccc(Cl)cc1`, 135 to 136 °C; that for `Cc1nonc1C`, -7 °C.
`O=C(O)c1cc(O)cc(O)c1` registered a melting point of 235 to 240 °C.
In the case of `CC(=O)OCC1OC(c2nn[nH]n2)C(N2C(=O)c3ccccc3C2=O)C(OC(C)=O)C1OC(C)=O` (configuration not stated), the melting point is 98 °C.
Under `O=C(Cl)c1sc(-c2ccccc2)nc1-c1ccccc1` stands 139 °C.
The molecule `O=C(C=Cc1ccc(O)cc1)c1ccccc1` came in with a melting point of 184 °C.
On to `CCCCCCCCCCCCCCCCCC#N`, for which the melting point was determined as 41 °C.
The molecule `CN1CCC2=C(C1)C(c1ccccc1)c1ccccc12` (configuration not stated) had a melting point of 91 °C.
Under `CCOC(=O)C1=C(C)NC(=O)NC1c1ccc(O)c(OC)c1` (configuration not stated) stands 190 °C; under `CCOc1ccc(C(C)O)cc1` (configuration not stated), 47 °C; under `C[C@H](O)C(N)=O`, 51 to 55 °C.
In the case of `O=Cc1cc(O)c(O)cc1O`, the melting point came to 223 °C.
The molecule `O=C(O)c1ccc(O)cc1C(=O)O` displayed a melting point of 191 to 194 °C.
The result for `COc1cccc2cc(C(=O)C3CC(C)(c4c(C)cc(C)cc4C)C3)oc12` (configuration not stated) reads 96 to 97 °C.
Under `CCOCCOCC` stands -74 °C.
In turn, `O=C(CC(=O)C(F)F)c1ccccc1` had a melting point of 37 to 45 °C.
Molecule `CN(C)c1cccc2c(S(=O)(=O)NC3CC(C)(C)N(O)C3(C)C)cccc12` (configuration not stated) returned a melting point of 157 to 161 °C.
`Cc1ccc(C(=O)C=Cc2ccc(Cl)cc2)cc1` displayed a melting point of 122 °C.
For `O=S(=O)(Cl)c1csc(C(F)(F)F)c1-c1ccccc1`, the melting point was in the range of 86 to 87 °C.
In turn, `S=C(NCCN1CCOCC1)NC1CCCCC1` gave a melting point of 125 to 126 °C.
Consider `COc1ccccc1-c1nnc2n1NC(c1ccc(Cl)cc1)S2` (configuration not stated), for which the melting point was determined as 203 °C.
`CC(=O)Oc1cccc(C#N)c1` showed a melting point of 60 °C.
Take `Cn1c(=O)c2c(ncn2CCOC(=O)c2cccnc2)n(C)c1=O`: the melting point is 152 °C.
`CCOc1cccc(C=O)c1O` yielded a melting point of 67 °C.
The molecule `Cc1c(Cl)cccc1Nc1ccccc1C(=O)O` returned a melting point of 207 °C.
For `COc1ccc(C#N)c(F)c1F`, the melting point turned out to be 84 °C.
For the molecule `CC(C)(C)OC(=O)N1CC(C#N)C1`, the melting point was 70 °C.
Molecule `Nc1ccc(Nc2ccccc2)cc1` gave a melting point of 74 °C.
Regarding `Cc1cc(C)n(CN(Cn2nc(C)cc2C)c2ccc(N(Cn3nc(C)cc3C)Cn3nc(C)cc3C)cc2)n1`, the melting point turned out to be 175 °C.
In turn, `O=C1OC(c2ccc(Cl)cc2)=NC1=Cc1ccccc1` returned a melting point of 181 to 182 °C.
Molecule `CC(C)CCCC(C)C1CCC2C3CC(O)C4=CC(=O)CCC4(C)C3CCC12C` (configuration not stated) displayed a melting point of 189 to 193 °C.
In turn, `NC(Cc1ccc([N+](=O)[O-])cc1)C(=O)O` (racemic) came in with a melting point of 236 to 237 °C.
For the molecule `O=C(NN=C1CCCCC1)C(=O)NN=C1CCCCC1`, the melting point was determined as 210 °C.
On to `C#CC(O)CCCCC` (configuration not stated), for which the melting point was -60 °C.
As to `CN(C(=S)Cl)c1ccccc1`, the melting point lay within 31 to 34 °C.
Consider `c1ccc2c(c1)OCCOCCOCCOc1ccccc1OCCOCCOCCO2`, for which the melting point lay in the range of 102 to 106 °C.
In turn, `C=C(C)CCCCCCCCCC` showed a melting point of -31 °C.
The result for `COC(=O)c1ccccc1-n1c(=S)[nH]c2ccccc2c1=O` reads 255 to 257 °C.
As for `O=[N+]([O-])c1ccc(Br)c2cccc(C=Nc3ccccc3)c12`, the melting point was 232 °C.
The result for `Clc1cc(Cl)c2c(c1)Oc1cc(Cl)c(Cl)cc1O2` reads 194 °C; that for `O=C(CS)Nc1ccc2ccccc2c1`, 112 °C.
As to `OCc1ccc(I)c(O)c1`, the melting point worked out at 148 °C.
`CCC1CC(NC(C)=O)CC(C)(C)N1O` (configuration not stated) showed a melting point of 142 to 145 °C.
Regarding `Clc1ccc(CSSCc2ccc(Cl)cc2)cc1`, the melting point lay within 59 to 61 °C.
`NC(=O)CC[C@H](NC(=O)C(F)(F)F)C(=O)O` came in with a melting point of 146 to 150 °C.
Under `Cc1cc(Cl)c(N=C=O)cc1N=C=O` stands 62 °C; under `O=C(O)c1cc2cc(Br)ccc2oc1=O`, 195 °C; under `CCOC(=O)C1=NN(c2ccc(Cl)cc2Cl)C(C)(C(=O)OCC)C1` (configuration not stated), 51 °C.
The result for `OCC(Br)=C(Br)CO` reads 111 to 116 °C.
On to `Cc1cc(C)c(CC(=O)c2cc3ccccc3o2)c(C)c1`, for which the melting point was 172 to 173 °C.
In turn, `O=C(O)c1sc2sccc2c1Cl` returned a melting point of 252 to 258 °C.
Consider `O=c1[nH]c(=O)n(C2OC(CO)C(O)C2O)cc1F` (configuration not stated), for which the melting point fell in the range of 180 to 183 °C.
The molecule `COC1C(C(O)CO)OC2OC3(CCCCC3)OC21` (configuration not stated) gave a melting point of 98 to 102 °C.
Molecule `Nc1nnc(C2CC2)[nH]1` displayed a melting point of 128 to 130 °C.
In the case of `O=C=Nc1cc(Cl)ccc1Cl`, the melting point is 30 °C.
`O=C1Cc2c1cccc2[N+](=O)[O-]` had a melting point of 115 to 117 °C.
`FC(Cl)C(F)Cl` (configuration not stated) showed a melting point of -101 °C.
In turn, `O=C1C=CC(=O)c2c(Cl)cccc21` registered a melting point of 163 °C.
The result for `NNC(=S)Nc1ccc(F)cc1` reads 171 to 172 °C; that for `Nc1ccc(C2SCCS2)cc1`, 57 to 59 °C; that for `CC(=O)Nc1cc(NC(C)=O)c([N+](=O)[O-])cc1[N+](=O)[O-]`, 247 to 248 °C.
`CC(C)OC(=O)C(C)N(C(=O)c1ccccc1)c1ccc(F)c(Cl)c1` (configuration not stated) had a melting point of 84 °C.
For the molecule `Nc1ccc(Cl)c(F)c1`, the melting point was 60 °C.
The result for `Cc1c(C(N)=O)[nH]c2ccccc12` reads 170 to 172 °C; that for `O=S(=O)(Cl)c1ccc(N2CCOCC2)nc1`, 118 °C; that for `CCCCCCCCCC(C)C`, -47 °C.
Under `Cc1ccc2ccc3ccccc3c2c1` stands 65 °C.
Molecule `O=Cc1c[nH]nc1-c1cccs1` yielded a melting point of 102 to 103 °C.
As for `O=Cc1cccc(Br)n1`, the melting point worked out at 81 °C.
`CCCCCNc1ccc(NCCCCC)c2c1C(=O)c1ccccc1C2=O` registered a melting point of 210 °C.
`O=C(COc1ccc(Cl)cc1)Nc1nc2ccc(Br)cc2s1` yielded a melting point of 236 °C.
With `Brc1ccsc1Br`, the melting point was -17.5 °C.
The molecule `NNC(=O)c1csc(-c2cccc(Cl)c2Cl)n1` showed a melting point of 230 to 233 °C.
Take `O=S(=O)(Cl)c1cc(S(=O)(=O)c2ccccc2)cs1`: the melting point was 102 °C.
Under `CCC(C)C1(CC)C(=O)NC(=S)NC1=O` (configuration not stated) stands 169 °C.
The result for `COC(=O)Nc1cccc(OC(=O)Nc2cccc(C)c2)c1` reads 143 °C; that for `Cc1ccc(O)c(C(O)Cc2ccccc2)c1` (configuration not stated), 83 °C.
On to `NC(=NO)C(N)=NO`, for which the melting point fell in the range of 200 to 204 °C.
For `O=S(=O)(O)CCCN1CCN(CCO)CC1`, the melting point was 231 °C.
`Nc1ccc(Br)nc1` yielded a melting point of 77 °C.
`O=C1C=C(NCc2cccnc2)C(=O)c2ccccc21` registered a melting point of 209 °C.
`Cn1c(=O)c(C(N)=NO)cn(-c2ccccc2)c1=O`: the melting point lay in the range of 189 to 191 °C.
As for `COC1OC(COC(=O)C(C)(C)C)C(O)C(OC(=O)C(C)(C)C)C1O` (configuration not stated), the melting point was determined as 89.8 °C.
With `NC(=O)CC(N)=O`, the melting point is 169 °C.
The molecule `CCOC(=O)c1cn[nH]c1NC(=O)Nc1ccc(Cl)cc1` came in with a melting point of 260 to 261 °C.
In turn, `O=C1NC(=S)NC(=O)C1=NNc1ccc(Cl)cc1` had a melting point of 300 °C.
As for `CCCCCCCCCCCCCCCCCCOCC(O)CO` (configuration not stated), the melting point amounted to 70.5 °C.
The result for `CCOC(=O)c1cc(-c2cccs2)nn1C` reads 72 to 73 °C; that for `CC(=O)c1ccc(OC2OC(CO)C(O)C(O)C2O)cc1` (configuration not stated), 196 °C.
Take `CC(C)C/C(Cc1ccccc1)=N\NC(N)=O`: the melting point came to 89 °C.
The molecule `C[Si](C)(Cl)CC[Si](C)(C)Cl` came in with a melting point of 37 °C.
`Clc1ccc2c(c1)Oc1cc(Cl)c(Cl)c(Cl)c1O2`: the melting point turned out to be 172 °C.
`Cc1ccc(C(c2ccc(C)o2)c2ccccc2N=C=S)o1` registered a melting point of 65 °C.
`CC(=O)Nc1ccc2c(NC(C)=O)c(O)ccc2c1` had a melting point of 235 °C.
`O=C(NCN(CNC(=O)c1ccccc1)N(CNC(=O)c1ccccc1)CNC(=O)c1ccccc1)c1ccccc1` yielded a melting point of 99 to 101 °C.
On to `CC(=O)N1N=C(c2ccc3ccccc3c2)C[C@@H]1c1ccc(Cl)c(Cl)c1`, for which the melting point was 242 °C.
The molecule `O=[N+]([O-])c1ccc(-c2nnc3n2NCS3)cc1` registered a melting point of 218 °C.
As for `CCCCC(C(N)=O)n1nnc2ccccc21` (configuration not stated), the melting point was determined as 118 °C.
`C[Si](C)(C)[Si]([Si](C)(C)C)([Si](C)(C)C)[Si](C)(C)C`: the melting point came out at 267 °C.
Regarding `Brc1cccc(Br)c1Oc1ccccc1`, the melting point was under 20 °C.
The result for `CCOc1nc2ccccc2c(=O)[nH]1` reads 178 to 179 °C; that for `CCCCCCCCCCCCCCOCCOCCOCCOCCOCCOCCO`, 32.5 °C; that for `COc1ccccc1NC(N)=S`, 156 °C.
The result for `COC(=O)c1cccc2[nH]ccc12` reads 70 °C.
The result for `CSc1ccc(N=C=S)cc1` reads 50 °C.
On to `CCNC(=O)Nc1ncc([N+](=O)[O-])s1`, for which the melting point turned out to be 228 °C.
`CCCCCCCC(=O)OCCCCC` had a melting point of -34.8 °C.
The molecule `Cc1nc(-c2ccc(C(F)(F)F)cc2)sc1Br` showed a melting point of 68 to 69 °C.

The values above are taken from a melting point compilation (Tetko et al.).
